Patent US20190255073A1, “ESTERS OF 3-POLYAMINE DERIVATIVES OF BILE ACIDS FOR THE TREATMENT OF INFECTIONS” (VIRBAC, priority 2016, published 2019)
In brackets after ≈: the same amount, converted by molar mass. Like-named read-outs stand apart in the source and are kept apart here.

What was measured:
[1] = tested on: P. aeruginosa (1051575); experiment: MIC determination by microplate dilution, P. aeruginosa animal strain; type: cell-based, Pseudomonas aeruginosa; conditions: Pseudomonas aeruginosa, Gram-negative, Mueller-Hinton medium, 24 h, 37° C.
Summary of the method: (§1)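 Strains precultured in Mueller-Hinton broth 24 h at 37 °C; compounds from 5 mg/mL stocks in DMSO/methanol 50/50, twofold serial dilution in 96-well plates, inoculum set to OD 0.01. Incubated 24 h at 37 °C, humid; OD read at 620 nm to derive MIC, duplicates.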

[2] = tested on: P. aeruginosa (1051575); experiment: Potentiation of chloramphenicol activity; type: cell-based, Pseudomonas aeruginosa
Experimental: (§2) This method requires the use of a 96-well plate: 100 μL of a liquid culture medium are placed in each well and then seeded with the microbial suspension prepared previously. The required volume to be seeded is calculated for an OD of 0.01, which corresponds to about 5×10^6 bacteria in each well. In this plate, the first line corresponds to a negative control (200 μL of sterile culture medium in each well), the second line corresponds to a positive control (100 μL of sterile culture medium+100 μL of the bacterial suspension), and the third line contains 192 μL of culture medium; 8 μL of compound of formula (I) to be tested are placed in each well. […] 92 μL of bacterial suspension are then added to lines 3 to 8. […] After 24 hours of incubation at 37° C., 40 μL of nitro tetrazolium iodide are added to each well to reveal the presence of live bacteria by staining the medium pink.
(§3) The procedure is identical to that indicated in Example 5 above. […]
(§4) The results are given in table V. They indicate the concentration of compound of formula (I) required to be able to restore the activity of the antibiotic under consideration.

[3] = tested on: E. faecalis ATCC29212; experiment: MIC determination by microplate dilution, E. faecalis human strain; type: cell-based, Enterococcus faecalis; conditions: Enterococcus faecalis, ATCC29212, Gram-positive, Mueller-Hinton medium, 24 h, 37° C.
Summary of the method: as §1

[4] = tested on: E. coli ATCC28922; experiment: MIC determination by microplate dilution, E. coli human strain; type: cell-based, Escherichia coli; conditions: Escherichia coli, ATCC28922, Gram-negative, Mueller-Hinton medium, 24 h, 37° C.
Summary of the method: as §1

[5] = tested on: S. aureus ATCC25923; experiment: MIC determination by microplate dilution, S. aureus human strain; type: cell-based, Staphylococcus aureus; conditions: Staphylococcus aureus, ATCC25923, Gram-positive, Mueller-Hinton medium, 24 h, 37° C.
Summary of the method: as §1

[6] = tested on: P. aeruginosa (1051575); experiment: Potentiation of the doxycycline activity at 2 μg/mL; type: cell-based, Pseudomonas aeruginosa; conditions: for MIC - P. aeruginosa (1051575): content of compound of formula (I) to restore the doxycycline activity (at 2 μg/mL): in combination with doxycycline 2 μg/mL, 24 h, 37°
[7] = tested on: C. albicans; experiment: Antifungal activity, cascade microdilution, C. albicans; type: cell-based, Candida albicans; conditions: Candida albicans, 24 h, read-out: IC50 (μg/mL) C. albicans
[8] = tested on: CHO-K1 cells; experiment: WST1 cytotoxicity test on CHO-K1 cells; type: cell-based, Chinese hamster; conditions: Cricetulus griseus
Summary of the method: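 CHO-K1 cells seeded 24 h, then exposed to increasing compound concentrations in duplicate for 24 h at 37 °C, 5% CO2. Viability by WST-1 reduction (20 min, 37 °C), absorbance at 450 nm. IC50 = concentration reducing viability by 50%, from nonlinear regression of dose-response.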

[9] = tested on: P. aeruginosa (1051575); experiment: Potentiation of ampicillin activity; type: cell-based, Pseudomonas aeruginosa; conditions: concentration of compound required with ampicillin 4 μg/mL
Experimental: as §2, §3, §4

[10] = tested on: S. aureus (340); experiment: MIC determination by microplate dilution, S. aureus animal strain; type: cell-based, Staphylococcus aureus; conditions: Staphylococcus aureus, Gram-positive, Mueller-Hinton medium, 24 h, 37° C.
Summary of the method: as §1

[11] = tested on: S. intermedius (1051997); experiment: MIC determination by microplate dilution, S. intermedius animal strain; type: cell-based, Staphylococcus intermedius; conditions: Staphylococcus intermedius, Gram-positive, Mueller-Hinton medium, 24 h, 37° C.
Summary of the method: as §1

[12] = tested on: P. aeruginosa (1051575); experiment: Potentiation of erythromycin activity; type: cell-based, Pseudomonas aeruginosa; conditions: concentration of compound required with erythromycin 2 μg/mL
Experimental: This method requires the use of a 96-well plate: 100 μL of a liquid culture medium are placed in each well and then seeded with the microbial suspension prepared previously. The required volume to be seeded is calculated for an OD of 0.01, which corresponds to about 5×10^6 bacteria in each well. In this plate, the first line corresponds to a negative control (200 μL of sterile culture medium in each well), the second line corresponds to a positive control (100 μL of sterile culture medium+100 μL of the bacterial suspension), and the third line contains 192 μL of culture medium; 8 μL of compound of formula (I) to be tested are placed in each well. Thereafter, a cascade dilution is performed from this line. […] (1 mg dissolved in 20 mL) are then added to each well of the lines 3 to 8 to obtain a final antibiotic concentration of 2 μg/mL. 92 μL of bacterial suspension are then added to lines 3 to 8. […] After 24 hours of incubation at 37° C., 40 μL of nitro tetrazolium iodide are added to each well to reveal the presence of live bacteria by staining the medium pink.
The procedure is identical to that indicated in Example 5 above. 8 μL of an antibiotic solution under consideration (1 mg dissolved in 20 mL) are added to obtain a final antibiotic concentration of 2 μg/mL instead of 8 μL of a doxycycline solution.
as §4

[13] = tested on: E. coli (1956); experiment: MIC determination by microplate dilution, E. coli animal strain; type: cell-based, Escherichia coli; conditions: Escherichia coli, Gram-negative, Mueller-Hinton medium, 24 h, 37° C.
Summary of the method: as §1

[14] = tested on: P. aeruginosa ATCC27853; experiment: MIC determination by microplate dilution, P. aeruginosa human strain; type: cell-based, Pseudomonas aeruginosa; conditions: Pseudomonas aeruginosa, ATCC27853, Gram-negative, Mueller-Hinton medium, 24 h, 37° C.
Summary of the method: as §1

[15] = concentration of compound required with chloramphenicol 4 μg/mL
[16] = CHO-K1, read-out: IC50 (μg/mL) CHO
[17] = concentration of compound required with chloramphenicol 2 μg/mL

| Structure (SMILES) | MIC [1] [µg/mL] | MIC P. aeruginosa (1051575), compound + chloramphenicol [2, 15] [µg/mL] | MIC [3] [µg/mL] | MIC [4] [µg/mL] | MIC [5] [µg/mL] | synergism with doxycycline ([6]; administered with doxycycline at 2 μg/mL) | MIC - P. aeruginosa (1051575): content of compound of formula (I) to restore the doxycycline activity (at 2 μg/mL) [6] [µg/mL] | IC50 [7] [µg/mL] | IC50 ([8]; CHO-K1, 24 h, read-out: IC50 (μg/mL) CHO) [µg/mL] | IC50 [8, 16] [µg/mL] | MIC P. aeruginosa (1051575), compound + ampicillin [9] [µg/mL] | MIC [10] [µg/mL] | MIC [11] [µg/mL] | MIC P. aeruginosa (1051575), compound + erythromycin [12] [µg/mL] | MIC P. aeruginosa (1051575), compound + chloramphenicol [2, 17] [µg/mL] | MIC [13] [µg/mL] | MIC [14] [µg/mL] | IC50 ([7]; compounds as hydrochloride in water, MH medium) [µg/mL] | IC50 ([8]; CHO-K1, CHO (Example 7), read-out: IC50 (μg/mL) CHO) [µg/mL] |
| --- | --- | --- | --- | --- | --- | --- | --- | --- | --- | --- | --- | --- | --- | --- | --- | --- | --- | --- | --- |
| CC(C)OC(=O)CC[C@@H](C)[C@H]1CCC2C3C(CC[C@@]21C)[C@@]1(C)CC[C@H](NCCCNCCCN)CC1C[C@H]3O (stereo partly drawn) [(11), isopropyl 3β-norspermidinochenodeoxycholate] | 14 (≈ 25.6 µM) | 2 | 3.5 (≈ 6.39 µM) | 14 (≈ 25.6 µM) | 7 (≈ 12.8 µM) | noteworthy synergism | 1 | 4 (≈ 7.3 µM) | 140 (≈ 256 µM) | 140 (≈ 256 µM) | 56 | 2 (≈ 3.65 µM) | 2 (≈ 3.65 µM) | 28 |  |  |  |  |  |
| CC(C)OC(=O)CC[C@@H](C)[C@H]1CCC2C3CCC4C[C@@H](NCCNCCNCCNCCNCCN)CC[C@]4(C)C3CC[C@@]21C (stereo partly drawn) [(26), isopropyl 3β-(pentaethylenehexamine)lithocholate] | 60 (≈ 94.8 µM) |  |  |  |  |  |  |  |  |  |  | 18 (≈ 28.4 µM) | 8 (≈ 12.6 µM) | 60 | 8 | 60 (≈ 94.8 µM) |  |  |  |
| CC(C)OC(=O)CC[C@@H](C)[C@H]1CCC2C3CCC4C[C@@H](NCCN(CCN)CCN)CC[C@]4(C)C3C[C@H](O)[C@@]21C (stereo partly drawn) [(29), isopropyl 3β-(tris(2-aminoethyl)amine)deoxycholate] | 56 (≈ 99.5 µM) | 7 | 28 (≈ 49.7 µM) | 14 (≈ 24.9 µM) | 28 (≈ 49.7 µM) |  | 4 |  |  |  | 56 | 14 (≈ 24.9 µM) | 14 (≈ 24.9 µM) | 56 |  | 28 (≈ 49.7 µM) | 56 (≈ 99.5 µM) |  |  |
| CC(C)OC(=O)CC[C@@H](C)[C@H]1CCC2C3C(C[C@H](O)[C@@]21C)[C@@]1(C)CC[C@H](NCCCN(C)CCCN)CC1C[C@H]3O (stereo partly drawn) [(36), isopropyl 3β-(bis(3-aminopropyl)methylamine)cholate] | 58 (≈ 100 µM) | 8 | 58 (≈ 100 µM) | 58 (≈ 100 µM) | 29 (≈ 50.2 µM) |  | 4 |  |  |  | 58 | 29 (≈ 50.2 µM) | 14 (≈ 24.2 µM) | 58 |  | 58 (≈ 100 µM) | 58 (≈ 100 µM) |  |  |
| CC(C)OC(=O)CC[C@@H](C)[C@H]1CCC2C3C(CC[C@@]21C)[C@@]1(C)CC[C@H](NCCN(CCN)CCN)CC1C[C@H]3O (stereo partly drawn) [(40), isopropyl 3β-(tris(2-aminoethyl)amine)chenodeoxycholate] |  | 4 | 14 (≈ 24.9 µM) | 14 (≈ 24.9 µM) | 14 (≈ 24.9 µM) |  | 4 | 7 (≈ 12.4 µM) |  | 140 (≈ 249 µM) | 28 | 14 (≈ 24.9 µM) | 7 (≈ 12.4 µM) | 56 |  | 28 (≈ 49.7 µM) | 56 (≈ 99.5 µM) |  |  |
| CC(C)OC(=O)CC[C@@H](C)[C@H]1CCC2C3C(CC[C@@]21C)[C@@]1(C)CC[C@H](NCCCN(C)CCCN)CC1C[C@@H]3O (stereo partly drawn) [(44), isopropyl 3β-(bis(3-aminopropyl)methylamine)ursodeoxycholate] | 28 (≈ 49.8 µM) |  |  |  |  |  |  |  |  |  |  | 28 (≈ 49.8 µM) | 14 (≈ 24.9 µM) | 55 | 14 | 56 (≈ 99.7 µM) |  |  |  |
| CC(C)OC(=O)CC[C@@H](C)[C@H]1CCC2C3CCC4C[C@@H](NCCCN(CCCN)CCCN)CC[C@]4(C)C3CC[C@@]21C (stereo partly drawn) [(47), isopropyl 3β-(tris(3-aminopropyl)amine)lithocholate] | 30 (≈ 50.9 µM) |  |  |  |  |  |  |  |  |  |  | 7 (≈ 11.9 µM) | 4 (≈ 6.79 µM) | 30 | 4 | 60 (≈ 102 µM) |  | 2 (≈ 3.4 µM) | 120 (≈ 204 µM) |
| CC(C)OC(=O)CC[C@@H](C)[C@H]1CCC2C3CCC4C[C@@H](NCCN(CCN)CCN)CC[C@]4(C)C3CC[C@@]21C (stereo partly drawn) [(48), isopropyl 3β-(tris(2-aminoethyl)amine)lithocholate] |  |  |  |  |  |  |  |  |  |  |  |  | 7 (≈ 12.8 µM) | 55 | 7 |  |  |  |  |
| CC(C)OC(=O)CC[C@@H](C)[C@H]1CCC2C3CCC4C[C@@H](NCCCN(C)CCCN)CC[C@]4(C)C3CC[C@@]21C (stereo partly drawn) [(49), isopropyl 3β-(bis(3-aminopropyl)methylamine)lithocholate] | 27 (≈ 49.5 µM) |  |  |  |  |  |  |  |  |  |  | 27 (≈ 49.5 µM) | 14 (≈ 25.6 µM) | 55 | 14 | 27 (≈ 49.5 µM) |  |  |  |
